Test results as given in patent US4562202A, “N-Acyl hexahydroindole-2-carboxylic acids and anti-hypertensive use thereof” (Hoechst Aktiengesellschaft, priority 1982, dated 1985).

These compounds were tested on pressor reaction induced by angiotensin I (assay: Inhibition of the pressor reaction induced by 310 ng of angiotensin I, intraduodenal administration to the anaesthetized rat). Conditions: 0.5 h, 310 ng angiotensin I, 30 min. after administration, read-out: ED50 (50% inhibition of the pressor reaction induced by 310 ng of angiotensin I 30 min. after administration).
Type: in vivo
Protocol: intraduodenal administration to the anaesthetized rat, 50% inhibition of the pressor reaction induced by 310 ng of angiotensin I 30 min. after administration in the dose . . . =ED50 : […]
In the case of `CCOC(=O)[C@H](CC(=O)c1ccccc1)N[C@@H](C)C(=O)N1[C@H](C(=O)O)C[C@@H]2CCC=C[C@@H]21` [N-(1S-carboethoxy-3-oxo-3-phenylpropyl)-S-alanyl-cis-2,3,3a,4,5,7a-hexahydro[1H]indole-2S-endocarboxylic acid], the ED50 is reported as 0.39 mg/kg. For `CCOC(=O)[C@H](CC(=O)c1ccccc1)N[C@@H](C)C(=O)N1[C@@H]2C=CCC[C@@H]2C[C@H]1C(=O)O` [N-(1S-carboethoxy-3-oxophenylpropyl)-S-alanyl-cis-2,3,3a,4,5,7a-hexahydro[1H]indole-2S-exocarboxylic acid], the ED50 was 0.5 mg/kg. `CCOC(=O)[C@H](CCc1ccccc1)N[C@@H](C)C(=O)N1[C@H](C(=O)O)C[C@@H]2CCC=C[C@@H]21` [N-(1S-carboethoxy-3-phenylpropyl)-S-alanyl-cis-2,3,3a,4,5,7a-hexahydro [1H]indole-2S-endo-carboxylic acid] showed an ED50 of 0.04 mg/kg. In the case of `CCOC(=O)[C@H](CCc1ccccc1)N[C@@H](C)C(=O)N1C(C(=O)O)CC2CCC=CC21` (stereo partly drawn) [N-(1S-carboethoxy-3-phenylpropyl)-S-alanyl-cis-2,3,3a,4,5,7a-hexahydro[1H]indole-2R,S-endo-carboxylic acid], the ED50 is reported as 0.08 mg/kg. Compound `CCOC(=O)[C@H](CCc1ccccc1)N[C@@H](C)C(=O)N1[C@@H]2C=CCC[C@@H]2C[C@H]1C(=O)O` [N-(1S-carboethoxy-3-phenylpropyl)-S-alanyl-cis-2,3,3a,4,5,7a-hexahydro[1H]indole-2S-exo-carboxylic acid] has an ED50 of 0.07 mg/kg. Work on `C[C@H](N[C@@H](CCc1ccccc1)C(=O)O)C(=O)N1[C@H](C(=O)O)C[C@@H]2CCC=C[C@@H]21` [N-(1S-carboxy-3-phenylpropyl)-S-alanyl-cis-2,3,3a,4,5,7a-hexahydro[1H]indole-2S-endo-carboxylic acid] yielded an ED50 of 0.6 mg/kg. `C[C@H](N[C@@H](CCc1ccccc1)C(=O)O)C(=O)N1[C@@H]2C=CCC[C@@H]2C[C@H]1C(=O)O` [N-(1S-carboxy-3-phenylpropyl)-S-alanyl-cis-2,3,3a,4,5,7a-hexahydro[1H]indole-2S-exo-carboxylic acid] was tested, and the ED50 was 0.7 mg/kg.
